# System: DYT1 MEF secreted EVs
# Experiment: Small RNAseq of miRNAs in EVs secreted by DYT1 vs WT MEFs, ritonavir 24 h
# Format: cell-based, mouse
# Details: 24 hour culture exposure
# Description: RNA was isolated from the DYT1 vs WT mouse embryonic fibroblast (MEF) secreted EVs, using the same cultures used in proteomic experiments. Small RNA sequencing was performed using a Illumina Novoseq 500. […] The number of independent culture preparations per genotype was three (N=3). The EV fraction was divided and separately analyzed for proteins and RNAs. […] Genotype-disrupted miRNAs and genotype-directionality as identified in FIG. 6A are indicated by blue and red dots in FIG. 6B. […] Blue and red data points of FIG. 6C identify genotype effect and directionality originally as in FIG. 6A.
smiles,measurement,setting,value
CC(C)c1nc(CN(C)C(=O)N[C@H](C(=O)N[C@@H](Cc2ccccc2)C[C@H](O)[C@H](Cc2ccccc2)NC(=O)OCc2cncs2)C(C)C)cs1 [ritonavir],effect on genotype-disrupted subset of EV miRNAs,,strong correlation of corrective effects
same,effect on genotype-disrupted subset of EV miRNAs,listed as Ritonavir,stronger correlation of corrective effects

# Reference: US20260266848A1, “COMPOSITIONS AND METHODS FOR DIAGNOSING AND TREATING DYSTONIA” (Duke University, priority 2023, published 2026)
